In patent US20230020320A1, “Liquid Composition for Cleaning, Sanitizing and/or Disinfecting” (CORTICALIS AS, priority 2020, published 2023):
Entries after “also recorded” stand apart in the source; their conditions may differ. Where two headings read alike, the source gives them in different places.

What was measured:
S. epidermidis [1] = assay: Staining of living and dead bacteria on decontaminated titanium surfaces, confocal microscope; assay type: cell-based; conditions: submerged in sanitizing solution 5 minutes on slow shaker
Experimental: Titanium surfaces contaminated with S. epidermidis bacteria and grown to biofilm in BHI broth was removed from growth medium and submerged in sanitizing solution for 5 minutes on a slow shaker. Discs were sanitized with A) saline (Negative control), B) Chlorhexidine 0.2% w/v, or C) H2O2 3% v/v+f-127 pluronic Acid 5% w/v. After cleaning the surfaces were stained with fluorescent dyes, green for living microbes and red for dead microbes. […] Surfaces were visualized in a confocal microscope after cleaning and staining (FIG. 4).

S. epidermidis [2] = assay: Regrowth of luciferase-harbouring bacteria on sanitized titanium surfaces, fluorometer; assay type: cell-based; conditions: 5 minutes in sanitizing solution; for Time until regrowth of the biofilm after cleaning: then BHI medium at 37 centigrade, hourly reading
Experimental: Regrowth of S. epidermidis after sanitizing a contaminated titanium surface Regrowth of S. epidermidis bacteria harbouring the luciferase gene making them fluorescent, on sanitized titanium surfaces. Surfaces was first contaminated with bacteria and incubated in BHI broth until the surfaces were completely covered in biofilm. The titanium discs were then submerged in sanitizing solution and left on a slow shaker for 5 minutes. After sanitizing the discs were rinsed in a large volume of sterile water, then covered by BHI medium again and incubated at 37 centigrade. At hourly intervals the discs were placed in a fluorometer to measure regrowth of bacteria by amount of fluorescent as compared to an untreated calibrated control and a sterile disc.

[3] = test system: non-spore forming bacteria; conditions: in less than 30 seconds, in the laboratory and on human skin; cited from earlier work
[4] = cited from earlier work

| Compound | Killing of microbes (green living / red dead staining) (S. epidermidis [1]) | Removal of biofilm/contamination from titanium surface (S. epidermidis [1]) | Biofilm remaining on the surface (S. epidermidis [2]) | Killing of bacteria (S. epidermidis [2]) | Time until regrowth of the biofilm after cleaning (S. epidermidis [2]) | Non-spore forming bacteria killed [3] [%] | Effect on wound healing ([4]; 0.03% v/v solution, only if not applied repeatedly) | Effect on wound healing ([4]; 0.5% v/v solution) |
| --- | --- | --- | --- | --- | --- | --- | --- | --- |
| N=C(NCCCCCCNC(=N)NC(=N)Nc1ccc(Cl)cc1)NC(=N)Nc1ccc(Cl)cc1 [Chlorhexidine 0.2% w/v, Chlorhexidine] | killed all microbes; also recorded: killed all bacteria | left the dead cells to contaminate the surface; also recorded: left them to contaminate the surface | the dead biofilm stuck and remained on the surface | killed all bacteria | no regrowth observed |  |  |  |
| CC(C)O [Isopropyl alcohol] |  |  |  |  |  | ≥ 99.99 |  |  |
| OO [hydrogen peroxide, Hydrogen peroxide] |  |  |  |  | about 13 hours |  | may induce healing | impede healing |
